Measurements taken from publication PMC8484532, “Synthesis and Evaluation of New Halogenated GR24 Analogs as Germination Promotors for Orobanche cumana” (Frontiers in Plant Science, 2021).
Where two headings read alike, the source gives them in different places.

Molecular target: T1, ShHTL7 (Striga hermonthica, UniProt A0A0M3PNA2)
T1 sequence (A0A0M3PNA2 1-271): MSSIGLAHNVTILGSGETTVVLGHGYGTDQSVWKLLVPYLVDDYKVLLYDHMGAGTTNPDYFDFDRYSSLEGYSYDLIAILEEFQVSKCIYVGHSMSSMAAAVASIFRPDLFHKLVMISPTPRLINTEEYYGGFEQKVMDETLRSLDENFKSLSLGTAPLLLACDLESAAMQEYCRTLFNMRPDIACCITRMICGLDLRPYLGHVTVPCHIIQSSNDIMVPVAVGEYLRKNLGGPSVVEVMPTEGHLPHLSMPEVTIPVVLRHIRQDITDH
Test: in vitro yoshimulactone green (YLG) fluorescence competition assay
Type: biochemical

IC50 (read-out: IC50) [µM]	SMILES	IC50 [µM]
	CC1=CC(O/C=C2/C(=O)OC3c4ccccc4CC23)OC1=O (racemic) [rac-GR24]	0.319 ± 0.032
0.521 ± 0.087	CC1=CC(O/C=C2/C(=O)OC3c4cc(Br)ccc4CC23)OC1=O (stereo not shown) [7BrGR24, 7-bromo-GR24]	
0.189 ± 0.012	CC1=CC(O/C=C2/C(=O)OC3c4cc(F)ccc4CC23)OC1=O (stereo not shown) [7FGR24, 7-fluoro-GR24]	
	CC1=C[C@H](O/C=C2/C(=O)O[C@@H]3c4ccccc4C[C@H]23)OC1=O [(+)-GR24]	0.248 ± 0.032
